{
  "source": "the kinase profiling compilation of Christmann-Franck et al. (2016)",
  "assay_in_all_cases": "KINOMEscan competition binding",
  "key": {"[1]": {"target": "IKBKE (human) (UniProt Q14164)", "details": "compound 10.0 µM"}, "[2]": {"target": "MARK4 (human) (UniProt Q96L34)", "details": "compound 10.0 µM"}, "[3]": {"target": "RIOK2 (human) (UniProt Q9BVS4)", "details": "compound 10.0 µM"}, "[4]": {"target": "HIPK4 (human) (UniProt Q8NE63)", "details": "compound 10.0 µM"}, "[5]": {"target": "MAP3K5 (human) (UniProt Q99683)", "details": "compound 10.0 µM"}, "[6]": {"target": "FLT3 (human) (UniProt P36888)", "details": "compound 10.0 µM"}, "[7]": {"target": "LYN (human) (UniProt P07948)", "details": "compound 10.0 µM"}, "[8]": {"target": "INSRR (human) (UniProt P14616)", "details": "compound 10.0 µM"}, "[9]": {"target": "PHKG2 (human) (UniProt P15735)", "sequence (P15735 whole entry, looked up)": "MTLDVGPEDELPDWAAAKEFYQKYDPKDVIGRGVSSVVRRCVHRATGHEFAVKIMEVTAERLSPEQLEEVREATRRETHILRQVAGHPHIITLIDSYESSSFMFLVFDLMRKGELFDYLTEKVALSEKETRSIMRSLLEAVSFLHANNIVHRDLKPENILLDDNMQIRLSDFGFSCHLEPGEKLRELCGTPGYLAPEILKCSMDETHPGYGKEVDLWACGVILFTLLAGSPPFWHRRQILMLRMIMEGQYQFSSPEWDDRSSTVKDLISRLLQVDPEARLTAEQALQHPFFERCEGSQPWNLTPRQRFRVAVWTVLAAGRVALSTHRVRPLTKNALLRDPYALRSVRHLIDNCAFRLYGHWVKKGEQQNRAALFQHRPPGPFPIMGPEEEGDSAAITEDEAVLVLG", "details": "compound 10.0 µM"}, "[10]": {"target": "IRAK1 (human) (UniProt P51617)", "details": "compound 10.0 µM"}, "[11]": {"target": "CDK11B (human) (UniProt P21127)", "details": "compound 10.0 µM"}, "[12]": {"system": "KIT (human), P10721 [A829P]", "details": "compound 10.0 µM"}, "[13]": {"target": "PRKCD (human) (UniProt Q05655)", "details": "compound 10.0 µM"}, "[14]": {"target": "PAK7 (human) (UniProt Q9P286)", "details": "compound 10.0 µM"}, "[15]": {"target": "MST4 (human) (UniProt Q9P289)", "details": "compound 10.0 µM"}, "[16]": {"target": "CSNK2A2 (human) (UniProt P19784)", "sequence (P19784 whole entry, looked up)": "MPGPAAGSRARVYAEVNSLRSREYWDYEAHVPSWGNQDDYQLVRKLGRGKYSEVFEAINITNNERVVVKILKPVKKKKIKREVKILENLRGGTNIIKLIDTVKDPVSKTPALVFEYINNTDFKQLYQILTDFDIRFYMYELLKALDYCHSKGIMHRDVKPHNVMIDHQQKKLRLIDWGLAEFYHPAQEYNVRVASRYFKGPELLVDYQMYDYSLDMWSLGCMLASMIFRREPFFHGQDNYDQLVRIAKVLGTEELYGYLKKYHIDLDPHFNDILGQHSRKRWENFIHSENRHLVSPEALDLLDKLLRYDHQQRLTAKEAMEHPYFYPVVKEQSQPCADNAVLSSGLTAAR", "details": "compound 10.0 µM"}, "[17]": {"target": "RIPK1 (human) (UniProt Q13546)", "details": "compound 10.0 µM"}, "[18]": {"system": "FLT3 (human), P36888 [D835H]", "details": "compound 10.0 µM"}, "[19]": {"target": "EPHB4 (human) (UniProt P54760)", "details": "compound 10.0 µM"}, "[20]": {"target": "MAP3K12 (human) (UniProt Q12852)", "sequence (Q12852 whole entry, looked up)": "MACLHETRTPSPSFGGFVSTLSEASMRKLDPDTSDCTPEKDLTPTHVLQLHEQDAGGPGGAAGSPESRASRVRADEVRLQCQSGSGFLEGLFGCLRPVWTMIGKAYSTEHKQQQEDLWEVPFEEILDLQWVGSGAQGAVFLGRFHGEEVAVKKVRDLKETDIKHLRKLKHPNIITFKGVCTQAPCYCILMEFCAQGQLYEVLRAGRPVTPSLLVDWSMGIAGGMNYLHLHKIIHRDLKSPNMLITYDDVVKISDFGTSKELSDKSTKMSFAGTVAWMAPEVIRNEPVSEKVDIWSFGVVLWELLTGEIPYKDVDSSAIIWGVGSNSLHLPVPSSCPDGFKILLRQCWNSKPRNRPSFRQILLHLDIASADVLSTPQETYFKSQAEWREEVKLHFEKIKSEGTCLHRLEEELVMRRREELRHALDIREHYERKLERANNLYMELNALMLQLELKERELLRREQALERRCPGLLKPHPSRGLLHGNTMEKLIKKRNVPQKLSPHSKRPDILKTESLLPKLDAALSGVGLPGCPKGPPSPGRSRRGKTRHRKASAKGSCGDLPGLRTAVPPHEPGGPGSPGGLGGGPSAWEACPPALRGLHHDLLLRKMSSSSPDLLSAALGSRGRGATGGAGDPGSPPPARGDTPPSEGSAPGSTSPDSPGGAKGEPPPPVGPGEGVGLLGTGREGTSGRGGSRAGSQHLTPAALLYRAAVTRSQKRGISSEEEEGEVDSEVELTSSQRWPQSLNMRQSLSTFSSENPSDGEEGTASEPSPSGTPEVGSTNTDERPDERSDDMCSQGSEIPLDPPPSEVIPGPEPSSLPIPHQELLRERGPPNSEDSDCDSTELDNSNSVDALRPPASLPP", "details": "compound 10.0 µM"}, "[21]": {"target": "MAPK9 (human) (UniProt P45984)", "sequence (P45984 whole entry, looked up)": "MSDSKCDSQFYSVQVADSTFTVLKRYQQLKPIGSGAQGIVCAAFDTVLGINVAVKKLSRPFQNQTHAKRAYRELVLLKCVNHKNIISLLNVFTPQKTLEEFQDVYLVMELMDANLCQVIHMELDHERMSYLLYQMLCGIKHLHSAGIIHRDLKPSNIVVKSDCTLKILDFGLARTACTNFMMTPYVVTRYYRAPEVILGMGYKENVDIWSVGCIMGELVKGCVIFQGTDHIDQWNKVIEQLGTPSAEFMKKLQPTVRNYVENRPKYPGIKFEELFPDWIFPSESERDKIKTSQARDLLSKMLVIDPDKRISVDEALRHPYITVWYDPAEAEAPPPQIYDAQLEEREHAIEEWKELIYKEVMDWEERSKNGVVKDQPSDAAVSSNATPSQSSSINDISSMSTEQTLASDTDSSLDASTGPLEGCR", "details": "compound 10.0 µM"}, "[22]": {"target": "GAK (human) (UniProt O14976)", "details": "compound 10.0 µM"}, "[23]": {"target": "PIP5K1C (human) (UniProt O60331)", "details": "compound 10.0 µM"}, "[24]": {"target": "MAPKAPK2 (human) (UniProt P49137)", "sequence (P49137 whole entry, looked up)": "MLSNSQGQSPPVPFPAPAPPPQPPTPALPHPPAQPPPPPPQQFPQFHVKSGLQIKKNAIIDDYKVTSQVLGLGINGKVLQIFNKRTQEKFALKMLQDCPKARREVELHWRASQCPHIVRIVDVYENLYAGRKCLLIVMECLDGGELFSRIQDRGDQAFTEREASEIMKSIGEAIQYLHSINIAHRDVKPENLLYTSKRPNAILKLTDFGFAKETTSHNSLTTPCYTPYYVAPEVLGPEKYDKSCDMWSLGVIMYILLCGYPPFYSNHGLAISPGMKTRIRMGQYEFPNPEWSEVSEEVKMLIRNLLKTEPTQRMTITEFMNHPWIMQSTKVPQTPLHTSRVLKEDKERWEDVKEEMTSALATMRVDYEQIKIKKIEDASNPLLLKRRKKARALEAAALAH", "details": "compound 10.0 µM"}, "[25]": {"target": "GSK3B (human) (UniProt P49841)", "details": "compound 10.0 µM"}, "[26]": {"target": "CLK4 (human) (UniProt Q9HAZ1)", "sequence (Q9HAZ1 whole entry, looked up)": "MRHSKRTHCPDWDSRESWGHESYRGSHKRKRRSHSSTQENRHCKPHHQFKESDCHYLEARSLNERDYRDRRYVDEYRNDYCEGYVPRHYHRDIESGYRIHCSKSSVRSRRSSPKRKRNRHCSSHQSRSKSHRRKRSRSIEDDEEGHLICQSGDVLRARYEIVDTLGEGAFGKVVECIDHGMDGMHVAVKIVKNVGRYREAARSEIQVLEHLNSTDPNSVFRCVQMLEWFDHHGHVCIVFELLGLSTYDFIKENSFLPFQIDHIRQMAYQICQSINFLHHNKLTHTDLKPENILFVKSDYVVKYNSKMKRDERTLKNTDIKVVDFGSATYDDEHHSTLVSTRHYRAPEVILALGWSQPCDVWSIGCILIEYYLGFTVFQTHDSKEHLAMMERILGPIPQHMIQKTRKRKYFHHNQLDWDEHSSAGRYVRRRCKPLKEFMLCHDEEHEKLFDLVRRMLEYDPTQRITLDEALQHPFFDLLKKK", "details": "compound 10.0 µM"}, "[27]": {"target": "MAPK13 (human) (UniProt O15264)", "sequence (O15264 whole entry, looked up)": "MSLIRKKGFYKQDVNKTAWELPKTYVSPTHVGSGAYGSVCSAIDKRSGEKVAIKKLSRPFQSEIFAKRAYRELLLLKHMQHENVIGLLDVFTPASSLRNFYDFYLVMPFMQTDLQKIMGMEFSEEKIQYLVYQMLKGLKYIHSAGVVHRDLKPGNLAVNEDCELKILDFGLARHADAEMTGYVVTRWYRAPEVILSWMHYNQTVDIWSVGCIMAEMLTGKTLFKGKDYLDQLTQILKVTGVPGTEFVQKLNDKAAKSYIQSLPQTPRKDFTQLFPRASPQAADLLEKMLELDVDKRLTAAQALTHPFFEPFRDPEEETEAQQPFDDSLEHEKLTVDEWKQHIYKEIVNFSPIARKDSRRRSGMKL", "details": "compound 10.0 µM"}, "[28]": {"target": "HUNK (human) (UniProt P57058)", "details": "compound 10.0 µM"}, "[29]": {"target": "EPHA4 (human) (UniProt P54764)", "sequence (P54764 whole entry, looked up)": "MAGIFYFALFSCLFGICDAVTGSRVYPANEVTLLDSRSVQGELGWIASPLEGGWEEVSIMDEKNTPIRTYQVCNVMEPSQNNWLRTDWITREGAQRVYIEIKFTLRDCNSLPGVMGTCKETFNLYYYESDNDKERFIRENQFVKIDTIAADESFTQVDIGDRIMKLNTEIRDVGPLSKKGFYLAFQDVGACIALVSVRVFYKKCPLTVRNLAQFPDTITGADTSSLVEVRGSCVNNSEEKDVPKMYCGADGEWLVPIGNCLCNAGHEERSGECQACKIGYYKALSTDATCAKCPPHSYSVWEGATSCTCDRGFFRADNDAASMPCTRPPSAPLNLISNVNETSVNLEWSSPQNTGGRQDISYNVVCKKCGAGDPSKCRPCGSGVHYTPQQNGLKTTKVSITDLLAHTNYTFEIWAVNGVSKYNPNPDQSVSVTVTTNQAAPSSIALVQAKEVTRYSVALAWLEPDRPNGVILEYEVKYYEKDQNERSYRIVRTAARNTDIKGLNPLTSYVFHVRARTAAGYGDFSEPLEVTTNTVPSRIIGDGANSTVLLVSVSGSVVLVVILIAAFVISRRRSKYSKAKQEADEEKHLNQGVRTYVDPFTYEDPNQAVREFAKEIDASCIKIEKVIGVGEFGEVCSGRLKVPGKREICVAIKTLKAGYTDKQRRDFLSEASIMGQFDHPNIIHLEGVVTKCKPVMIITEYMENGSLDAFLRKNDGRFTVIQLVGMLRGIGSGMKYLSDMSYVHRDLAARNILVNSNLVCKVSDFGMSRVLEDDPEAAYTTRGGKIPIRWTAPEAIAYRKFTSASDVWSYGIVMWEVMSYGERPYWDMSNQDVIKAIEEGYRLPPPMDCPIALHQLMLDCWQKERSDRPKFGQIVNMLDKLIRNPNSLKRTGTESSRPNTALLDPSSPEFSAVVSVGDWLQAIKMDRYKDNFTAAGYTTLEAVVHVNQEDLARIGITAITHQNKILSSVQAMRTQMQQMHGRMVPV", "details": "compound 10.0 µM"}, "[30]": {"target": "CLK2 (human) (UniProt P49760)", "details": "compound 10.0 µM"}, "[31]": {"target": "SYK (human) (UniProt P43405)", "details": "compound 10.0 µM"}, "[32]": {"target": "CDK9 (human) (UniProt P50750)", "details": "compound 10.0 µM"}, "[33]": {"target": "FYN (human) (UniProt P06241)", "details": "compound 10.0 µM"}, "[34]": {"target": "TNK1 (human) (UniProt Q13470)", "sequence (Q13470 whole entry, looked up)": "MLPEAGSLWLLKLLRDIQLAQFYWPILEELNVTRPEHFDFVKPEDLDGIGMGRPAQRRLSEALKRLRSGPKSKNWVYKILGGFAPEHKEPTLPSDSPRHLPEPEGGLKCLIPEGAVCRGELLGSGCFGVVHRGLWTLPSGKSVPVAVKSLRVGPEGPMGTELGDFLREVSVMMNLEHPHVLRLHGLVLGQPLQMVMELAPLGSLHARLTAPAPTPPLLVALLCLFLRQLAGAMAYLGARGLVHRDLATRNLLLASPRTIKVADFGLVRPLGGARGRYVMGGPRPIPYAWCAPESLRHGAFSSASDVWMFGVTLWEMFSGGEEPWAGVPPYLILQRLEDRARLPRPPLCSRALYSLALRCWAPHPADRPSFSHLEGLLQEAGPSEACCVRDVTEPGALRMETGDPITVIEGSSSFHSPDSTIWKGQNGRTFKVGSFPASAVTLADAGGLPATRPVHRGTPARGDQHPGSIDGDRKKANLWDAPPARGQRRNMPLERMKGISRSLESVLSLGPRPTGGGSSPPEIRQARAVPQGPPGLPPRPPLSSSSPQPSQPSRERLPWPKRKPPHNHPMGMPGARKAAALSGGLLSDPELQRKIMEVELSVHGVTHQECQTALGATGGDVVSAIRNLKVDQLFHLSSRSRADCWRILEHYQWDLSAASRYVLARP"}, "[35]": {"target": "TNNI3K (human) (UniProt Q59H18)", "details": "compound 10.0 µM"}},
  "note": "pKd: −log10 of the molar value.",
  "data": [
    {"compound": "COc1cc(C(=O)N2CCC(N3CCN(C)CC3)CC2)ccc1Nc1ncc2c(n1)N(C)c1ccccc1C(=O)N2C", "values": [
      {"measurement": "kinase still bound, per cent of control", "setting": "[1]", "result": 96, "unit": "%"},
      {"measurement": "kinase still bound, per cent of control", "setting": "[2]", "result": 78, "unit": "%"},
      {"measurement": "kinase still bound, per cent of control", "setting": "[3]", "result": 100, "unit": "%"},
      {"measurement": "kinase still bound, per cent of control", "setting": "[4]", "result": 100, "unit": "%"},
      {"measurement": "kinase still bound, per cent of control", "setting": "[5]", "result": 100, "unit": "%"},
      {"measurement": "kinase still bound, per cent of control", "setting": "[6]", "result": 100, "unit": "%"},
      {"measurement": "kinase still bound, per cent of control", "setting": "[7]", "result": 100, "unit": "%"},
      {"measurement": "kinase still bound, per cent of control", "setting": "[8]", "result": 97, "unit": "%"},
      {"measurement": "kinase still bound, per cent of control", "setting": "[9]", "result": 33, "unit": "%"},
      {"measurement": "kinase still bound, per cent of control", "setting": "[10]", "result": 100, "unit": "%"},
      {"measurement": "residual activity", "setting": "[11]", "result": 84, "unit": "%"},
      {"measurement": "kinase still bound, per cent of control", "setting": "[12]", "result": 100, "unit": "%"},
      {"measurement": "kinase still bound, per cent of control", "setting": "[13]", "result": 75, "unit": "%"},
      {"measurement": "kinase still bound, per cent of control", "setting": "[14]", "result": 96, "unit": "%"},
      {"measurement": "kinase still bound, per cent of control", "setting": "[15]", "result": 95, "unit": "%"},
      {"measurement": "kinase still bound, per cent of control", "setting": "[16]", "result": 93, "unit": "%"},
      {"measurement": "kinase still bound, per cent of control", "setting": "[17]", "result": 99, "unit": "%"},
      {"measurement": "kinase still bound, per cent of control", "setting": "[18]", "result": 100, "unit": "%"},
      {"measurement": "kinase still bound, per cent of control", "setting": "[19]", "result": 100, "unit": "%"},
      {"measurement": "residual activity", "setting": "[20]", "result": 81, "unit": "%"},
      {"measurement": "kinase still bound, per cent of control", "setting": "[21]", "result": 94, "unit": "%"},
      {"measurement": "kinase still bound, per cent of control", "setting": "[22]", "result": 16, "unit": "%"},
      {"measurement": "kinase still bound, per cent of control", "setting": "[23]", "result": 96, "unit": "%"},
      {"measurement": "kinase still bound, per cent of control", "setting": "[24]", "result": 100, "unit": "%"},
      {"measurement": "kinase still bound, per cent of control", "setting": "[25]", "result": 88, "unit": "%"},
      {"measurement": "kinase still bound, per cent of control", "setting": "[26]", "result": 54, "unit": "%"},
      {"measurement": "kinase still bound, per cent of control", "setting": "[27]", "result": 72, "unit": "%"},
      {"measurement": "kinase still bound, per cent of control", "setting": "[28]", "result": 100, "unit": "%"},
      {"measurement": "kinase still bound, per cent of control", "setting": "[29]", "result": 89, "unit": "%"},
      {"measurement": "kinase still bound, per cent of control", "setting": "[30]", "result": 72, "unit": "%"},
      {"measurement": "kinase still bound, per cent of control", "setting": "[31]", "result": 100, "unit": "%"},
      {"measurement": "residual activity", "setting": "[32]", "result": 100, "unit": "%"},
      {"measurement": "kinase still bound, per cent of control", "setting": "[33]", "result": 100, "unit": "%"},
      {"measurement": "pKd", "setting": "[34]", "result": 7.64},
      {"measurement": "kinase still bound, per cent of control", "setting": "[34]; compound 10.0 µM", "result": 2.8, "unit": "%"},
      {"measurement": "kinase still bound, per cent of control", "setting": "[35]", "result": 100, "unit": "%"}
    ]}
  ]
}
